Values belong to the compound of their own block, whether it stands above or below them.
How the values were obtained:
monocytes = test: Induction of IFN-regulated genes and TNFα in monocytes by aPL or Tlr7 agonist; format: cell-based, mouse
Procedure: (B) Induction of IFN-regulated genes by aPL. (C) TF and Tnfα mRNA induction by aPL HL5B or HL7G stimulation of CD115+ splenocytes of indicated mice stimulated for 3 hours, as well as early ROS production; mean±SD, n=6; * p<0.0001; one-way ANOVA, Dunnett multiple-comparison test. (D) Live cell imaging of HL5B internalization in monocytes of indicated mouse strains. Bar=5 μm. (E) Live cell imaging of aPL HL5B Fab′2 or IgG colocalization with EPCR using non-inhibitory αEPCR 1489 in human MM1 cells. (F) Internalization of EPCR, FVIIa, and TF in MM1 cells stimulated for 15 minutes similarly required proteases and integrin trafficking. For quantification of internalization, surface staining was quenched with 0.4% trypan blue; mean±SD, n=6. * p<0.0001; one-way ANOVA, Dunnett multiple-comparison test compared to IgG control.
FXa generated by the coagulation initiator TF-FVIIa utilizes the endothelial protein C receptor (EPCR) for protease activated receptor (PAR) 2 cleavage that is specifically required for LPS-induced interferon (IFN) responses (15, 16).

EPCR^C/S monocytes [1] = test: Lipid supplementation and aPL signalling in EPCR^C/S monocytes; format: cell-based, mouse
Text: (§1) (A) Effect of aPL HL5B, aPL HL7G, and αEPCR antibodies on EPCR-dependent aPC generation on murine microvascular endothelial cells. (B) Effect of anti-mouse EPCR antibodies 1682 and 1650 on Tnfα mRNA induction by aPL HL5B and HL7G; mean±SD, n=6. * p<0.0001; one-way ANOVA, Dunnett multiple-comparison. (C) Effect of αEPCR on aPL HL5B and HL7G internalization in CD115+ splenocytes. Bar=5 μm. (D) Flow cytometry detection of FXa and EPCR on CD115+ spleen monocytes isolated from indicated mouse strains. (E) Effect of pre-treatment with 10 μM LBPA for 10 min on surface binding of αEPCR 1682 and αLBPA 6C4 on indicated monocytes; mean±SD, n=6. * p<0.003; multiple t-tests. (F) Competition of αEPCR 1650 and 1682 with binding of FITC-labelled anti-LBPA antibody 6C4 to mouse CD115+ splenocytes. (G) Competition of αLBPA 6C4 with binding of αEPCR 1682 to mouse monocytes. (H) Effect of LBPA, cardiolipin (CL), and phosphatidylserine (PS) (10 μM) on aPL HLSB signalling in EPCR^C/S monocytes. Induction of TNF after 3 hours is shown; mean±SD, n=6. (I) LBPA loading of purified mouse or human sEPCR evidenced by faster mobility on native gels. (J) Surface plasmon resonance analysis of aPL HLSB binding to purified human sEPCR or sEPCR-LBPA. The affinity calculation was based on a monovalent binding model because no cooperative binding was evident.
(A) TNFα mRNA induction after 2 hours by HLSB is prevented in Alix-deficient trophoblast cells; mean±SD, n=6. * p<0.0001; t-test following Shapiro-Wilk test for normal distribution. (B, C) Proximity ligation assays (PLA) for ASM and EPCR on scrambled control JARs or ALIX−/− cells after 10 minutes of stimulation with HLSB (B) or thrombin (C) with or without LBPA loading. Bar=25 μm. (D) aPL internalization in ALIX deficient JAR cells and signalling in EPCR^C/S monocytes (E) was restored by adding 10 μM LBPA (S,R) but not by other phospholipids. (F) Pregnancy loss was scored at day 15.5 p.c. after injection of aPL HLSB on days 8 and 12. * p<0.02; one-way ANOVA, Dunnett multiple-comparison test. […]

[2] = tested on: ALIX^−/− trophoblast cells; test: aPL HL5B binding to ALIX-deficient trophoblast (JAR) cells after adding phospholipids; format: cell-based, human; settings: 10 μM lipid added
Procedure: (§2) (A) TNFα mRNA induction after 2 hours by HLSB is prevented in Alix-deficient trophoblast cells; mean±SD, n=6. * p<0.0001; t-test following Shapiro-Wilk test for normal distribution. (B, C) Proximity ligation assays (PLA) for ASM and EPCR on scrambled control JARs or ALIX−/− cells after 10 minutes of stimulation with HLSB (B) or thrombin (C) with or without LBPA loading. Bar=25 μm. (D) aPL internalization in ALIX deficient JAR cells and signalling in EPCR^C/S monocytes (E) was restored by adding 10 μM LBPA (S,R) but not by other phospholipids. (F) Pregnancy loss was scored at day 15.5 p.c. after injection of aPL HLSB on days 8 and 12. * p<0.02; one-way ANOVA, Dunnett multiple-comparison test. (G) Schematic representation of aPL signalling leading to thrombosis or pregnancy complications.
Human ALIX^−/− trophoblast cells and murine EPCR^C/S monocytes provided tools to compare the species conservation of lipid presentation by EPCR. Only addition of S/R 18:1 LBPA and R/R 18:1 LBPA, but not S/S 18:1 LBPA or semi-S/R LBPA restored aPL HL5B binding to ALIX^−/− trophoblast cells (FIG. 7D) or signaling in EPCR^C/S monocytes (FIG. 7E). Thus, human and mouse EPCR present LBPA with the same selectivity, providing an explanation for the remarkable species cross-reactivity of pathogenic aPL.

LBPA-loaded EPCR = biological target: T1, LBPA-loaded EPCR (Mus musculus, UniProt Q64695, C242S); test: Flow cytometry surface staining of monocytes with αEPCR 1682 and αLBPA 6C4; format: binding; settings: LBPA added to culture medium, 10 μM, 10 min
T1 construct: endogenous in cells; host or cells: mouse CD115+ spleen monocytes; murine microvascular endothelial cells
T1 sequence (Q64695 18-242 C242S): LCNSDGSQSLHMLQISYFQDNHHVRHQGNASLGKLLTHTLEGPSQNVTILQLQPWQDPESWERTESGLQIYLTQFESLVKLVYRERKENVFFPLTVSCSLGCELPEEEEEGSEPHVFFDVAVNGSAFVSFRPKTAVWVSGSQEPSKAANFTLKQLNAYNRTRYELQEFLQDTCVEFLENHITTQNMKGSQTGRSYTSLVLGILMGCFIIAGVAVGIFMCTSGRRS
Text: as §1, with “evident. […]” for “evident.”

[3] = tested on: acidic sphingomyelinase (ASM); test: ASM activity in CD115+ spleen monocytes stimulated with aPL HLSB; format: cell-based, mouse; settings: EPCR^C/S monocytes, LBPA 10 μM
Procedure: (A) WT CD115+ spleen monocyte induction of ASM activity after 15 minutes aPL HLSB stimulation with the indicated inhibitors. (B) LBPA (10 μM) loading of EPCR^C/S cells enabled ASM activation in CD115+ monocytes stimulated with HLSB.
ASM requires LBPA for activity (33). […] Thrombin stimulation to induce ASM surface expression was sufficient to trigger ASM activation that was blocked by extracellular addition of αEPCR-LBPA 1682 (FIG. 6C). TfpiΔK1 cells expressed LBPA-loaded EPCR (FIG. 3D), but lack surface FXa to trigger thrombin generation. […] In turn, ASM modification of surface lipid modification is required for endosomal trafficking and signaling of EPCR-bound aPL.

human trophoblast cells = test: TNFα mRNA induction by HLSB in ALIX knock-down trophoblast cells; format: cell-based; settings: extracellular LBPA supplemented
Procedure: as §2
The importance of this pathway in human trophoblast cells by knock-down of ALIX (FIG. 8A) was evaluated, which is required for normal lysosomal functioning. ALIX knock-down diminished LBPA cell surface presentation, but not EPCR expression (FIG. 8B) and abolished aPL-induced, but not TNFα-induced proinflammatory effects.

EPCR^C/S monocytes [4] = test: Gbp2 mRNA induction by aPL in EPCR^C/S monocytes; format: cell-based, mouse; settings: 1 hour stimulation with aPL
Procedure: (§3) (A) Gbp2 mRNA induction after 1 hour stimulation with HL5B, HL7G, or LPS (100 ng/ml) in EPCR^C/S or WT monocytes with or without addition of LBPA. (B) WT monocytes were stimulated for 1 hour with IgG isolated from MRL/lpr lupus-prone or control MRL mice in the presence of the indicated antibodies to EPCR. (C) Human monocyte-derived DC were co-cultured with B cells in the presence of TLR7/8 agonist R848 and aPL HL5B with the indicated antibodies to human EPCR. Anti-cardiolipin titers were determined after 10 days. (D-F) Co-cultures of isolated spleen plasmacytoid dendritic cells (pDC) and B cells from the indicated mouse strains were co-cultured with Tlr7 agonist R848 and aPL HL5B for 10 days, followed by determination of anti-cardiolipin titers. IFNR^−/−, type I interferon receptor deficient mice.
Further, it was investigated whether the identified target for lipid-reactive aPL contributes to the development of autoimmunity. Upregulation of interferon responses in circulating immune cells are linked to the development of APS (38, 39). […] In addition, IgG isolated from MRL/lpr lupus erythematosus mice, but not MRL control mice induced interferon responses dependent on EPCR-LPBA in monocytes (FIG. 9B).

EPCR^C/S pDC = test: Mouse pDC and B cell co-culture with R848 and aPL HL5B, anti-cardiolipin titers; format: cell-based; settings: co-cultures with EPCR^C/S pDC
Procedure: as §3
Supporting this conclusion, anti-cardiolipin antibody production was absent when mouse pDC, but not B cells, were isolated from EPCR^C/S mice (FIG. 9D). Addition of LBPA or interferon a restored the expansion of anti-cardiolipin producing B cells in co-cultures with aPL signaling-deficient EPCR^C/S pDC (FIG. 9D). In contrast, cells deficient in LRP8, the receptor for β2GPI, produced anti-cardiolipin antibodies normally in response to co-stimulation of aPL and Tlr7 agonist (FIG. 9E).

Compound: CCOCc1nc2c(N)nc3ccccc3c2n1CC(C)(C)O [R848]
induction of TNFα (monocytes): upregulated only TNFα

Compound: R/R 18:1 LBPA
aPL signaling in EPCR^C/S monocytes after adding LBPA isomers (EPCR^C/S monocytes [1]; 10 μM): restored
aPL HL5B binding to ALIX^−/− trophoblast cells [2]: restored

cell surface αLBPA 6C4 and αEPCR 1682 staining of EPCR^C/S cells (LBPA-loaded EPCR): restored
ASM activation by aPL after extracellular addition of LBPA [3]: restored ASM activation
Compound: lysobisphosphatidic acid [LBPA]
aPL pro-inflammatory signaling of EPCR^C/S cells after lipid supplementation (EPCR^C/S monocytes [1]; 10 μM lipid, TNF induction after 3 hours): restored aPL pro-inflammatory signaling
aPL signaling in ALIX knock-down trophoblast cells (human trophoblast cells): restored aPL signaling
interferon responses (GBP2) in EPCR^C/S monocytes (EPCR^C/S monocytes [4]): restored interferon responses
expansion of anti-cardiolipin producing B cells (EPCR^C/S pDC): restored

Source: patent US20230043394A1, “METHODS FOR DETECTION OF PATHOGENIC ANTIPHOSPHOLIPID ANTIBODIES AND FOR IDENTIFICATION OF INHIBITORS” (UNIVERSITÄTSMEDIZIN DER JOHANNES GUTENBERG-UNIVERSITÄT MAINZ, priority 2019, published 2023)
